Experimental data published in PMC11292009, “Mapping protein binding sites by photoreactive fragment pharmacophores” (Communications Chemistry, 2024).
“And” between values parts separate entries of the source, which are not always exact repeats. Identical values can stand only once.

Biological target: T1, STAT5B NTD (Homo sapiens, UniProt P51692)
T1 construct: His-SUMO (N, cleaved yes); made in house; host or cells: E. coli BL21 RILP
T1 sequence (P51692 1-123): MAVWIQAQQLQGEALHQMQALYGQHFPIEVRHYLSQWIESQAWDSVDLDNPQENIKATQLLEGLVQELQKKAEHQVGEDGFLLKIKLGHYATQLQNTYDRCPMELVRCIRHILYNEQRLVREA
Assay: Microscale thermophoresis (MST), without irradiation
Assay type: binding
Details: for ΔFnorm: Fnorm - Unbound value; for Fnorm: MST raw data; for Kd: MST, without irradiation, 25 °C
Experimental: For the microscale thermophoresis (MST) studies, we prepared 16 two-fold serial dilutions of compounds starting from 500 μM. Titration series were prepared that contained 10 μL of compounds’ solutions of varying concentrations and 10 μL RED-NHS 2nd Generation labeled STAT5B NTD with a concentration of 168 nM for compound PhP097, and a concentration of 84 nM for compound PhP065. Final buffer composition included 1X PBS containing 0.5% DMSO. All measurements were taken in Premium Coated Capillaries on a Monolith NT.115 instrument (NanoTemper Technologies, Munich, Germany) using 80% infrared laser power for compound PhP097, 60% infrared laser power for compound PhP065, and an LED excitation source with λ = 650 nm at a temperature of 25 °C. Results were expressed as the mean of two separate experiments, with three technical replicates each. GraphPad Prism 9.5.1 software was used to fit the data and to determine the KD values.

[1] = Php065 concentration [log, µM] 0.290724, runs/replicates
[2] = Php065 concentration [log, µM] 0.591766, runs/replicates
[3] = Php065 concentration [log, µM] 0.89279, runs/replicates
[4] = Php065 concentration [log, µM] 1.19382, runs/replicates
[5] = Php065 concentration [log, µM] 1.49485, runs/replicates
[6] = Php065 concentration [log, µM] 1.79588, runs/replicates
[7] = Php065 concentration [log, µM] 2.09691, runs/replicates
[8] = Php065 concentration [log, µM] -0.0102833, runs/replicates
[9] = Php065 concentration [log, µM] -0.612432, runs/replicates
[10] = Php065 concentration [log, µM] -1.21467, runs/replicates

CC1(CCC(=O)NCCc2csc(-c3ccccc3)n2)N=N1 [PhP097, N1=NC1(C)CCC(=O)NCCc2csc(n2)-c3ccccc3]
ΔFnorm (Php097 concentration [log, µM] 0.591766, runs/replicates): 5.764 ‰ and 7.778 ‰ and 6.699 ‰ and -1.199 ‰ and -1.302 ‰ and -4.005 ‰
ΔFnorm (Php097 concentration [log, µM] 0.89279, runs/replicates): -7.395 ‰ and -5.5397 ‰ and -5.711 ‰ and 0.2163 ‰ and 4.053 ‰ and 0.9615 ‰
ΔFnorm (Php097 concentration [log, µM] 1.19382, runs/replicates): -4.091 ‰ and -1.8497 ‰ and -1.165 ‰ and -5.318 ‰ and -5.614 ‰ and -5.274 ‰
ΔFnorm (Php097 concentration [log, µM] 1.49485, runs/replicates): -4.445 ‰ and -4.535 ‰ and -5.873 ‰ and -8.126 ‰ and -4.727 ‰ and -7.108 ‰
ΔFnorm (Php097 concentration [log, µM] 1.79588, runs/replicates): -8.587 ‰ and -6.363 ‰ and -6.457 ‰ and -11.6433 ‰ and -8.368 ‰ and -12.1062 ‰
ΔFnorm (Php097 concentration [log, µM] 2.09691, runs/replicates): -14.77 ‰ and -11.6203 ‰ and -10.8651 ‰ and -10.9408 ‰ and -5.699 ‰ and -12.7461 ‰
ΔFnorm (Php097 concentration [log, µM] 2.39794, runs/replicates): -1.7884 ‰ and 0.2047 ‰ and 0.7983 ‰ and -10.6185 ‰ and -13.0284 ‰ and -12.5258 ‰
ΔFnorm (Php097 concentration [log, µM] -0.0102833, runs/replicates): 4.6455 ‰ and 5.66 ‰ and 7.637 ‰ and -9.481 ‰ and -8.884 ‰ and -7.417 ‰
ΔFnorm (Php097 concentration [log, µM] -0.311313, runs/replicates): -5.603 ‰ and -3.243 ‰ and -1.459 ‰ and 3.271 ‰ and 2.052 ‰ and 1.015 ‰
ΔFnorm (Php097 concentration [log, µM] -0.913284, runs/replicates): 4.1952 ‰ and 9.04 ‰ and 7.8226 ‰ and -0.03038 ‰ and -2.726 ‰ and -0.9924 ‰
ΔFnorm (Php097 concentration [log, µM] -1.5157, runs/replicates): 0.7011 ‰ and -0.01526 ‰ and 1.427 ‰ and -0.3532 ‰
Fnorm (PhP097 concentration [log, µM] 0.591766, runs/replicates): 720.204 ‰ and 719.528 ‰ and 720.009 ‰ and 710.951 ‰ and 712.028 ‰ and 710.045 ‰
Fnorm (PhP097 concentration [log, µM] 0.89279, runs/replicates): 707.045 ‰ and 706.21 ‰ and 707.599 ‰ and 712.366 ‰ and 717.383 ‰ and 715.011 ‰
Fnorm (PhP097 concentration [log, µM] -0.0102833, runs/replicates): 719.086 ‰ and 717.41 ‰ and 720.947 ‰ and 702.669 ‰ and 704.446 ‰ and 706.633 ‰
Fnorm (PhP097 concentration [log, µM] -0.311313, runs/replicates): 708.837 ‰ and 708.507 ‰ and 711.851 ‰ and 715.421 ‰ and 715.382 ‰ and 715.065 ‰
Fnorm (PhP097 concentration [log, µM] -0.913284, runs/replicates): 718.635 ‰ and 720.79 ‰ and 721.133 ‰ and 712.12 ‰ and 710.604 ‰ and 713.058 ‰
Fnorm (PhP097 concentration [log, µM] -1.5157, runs/replicates): 715.141 ‰ and 711.735 ‰ and 714.737 ‰ and 711.797 ‰ and 713.155 ‰ and 719.464 ‰
Kd: 18.1 µM

Cc1[nH]c2ccccc2c1SCCNC(=O)CCC1(C)N=N1 [PhP065, c1cccc(c12)c(c(C)[nH]2)SCCNC(=O)CCC3(C)N=N3]
ΔFnorm [1]: 0.9086 ‰ and 1.12 ‰ and 1.315 ‰ and 0.6539 ‰ and 3.352 ‰
ΔFnorm [2]: 1.904 ‰ and 1.964 ‰ and 2.239 ‰ and 1.873 ‰ and 1.543 ‰
ΔFnorm [3]: 2.551 ‰ and 2.874 ‰ and 3.878 ‰ and 2.514 ‰ and 2.452 ‰
ΔFnorm [4]: 2.441 ‰ and 3.584 ‰ and 3.84 ‰ and 4.085 ‰ and 3.441 ‰
ΔFnorm [5]: 2.771 ‰ and 2.9356 ‰ and 3.692 ‰ and 3.134 ‰ and 1.982 ‰
ΔFnorm [6]: 5.943 ‰ and 5.783 ‰ and 5.743 ‰ and 2.367 ‰ and 1.87 ‰
ΔFnorm [7]: 3.3934 ‰ and 3.578 ‰ and 3.242 ‰ and 3.625 ‰ and 1.481 ‰
ΔFnorm [8]: -0.1141 ‰ and 1.411 ‰ and 0.9224 ‰ and 2.015 ‰ and 2.612 ‰
ΔFnorm [9]: 0.5449 ‰ and 0.5795 ‰ and -0.1361 ‰ and -1.636 ‰ and -0.3141 ‰
ΔFnorm [10]: -0.5121 ‰ and -0.1857 ‰ and -0.4698 ‰ and -1.614 ‰ and -1.146 ‰
Fnorm [1]: 864.059 ‰ and 864.76 ‰ and 864.855 ‰ and 874.324 ‰ and 877.312 ‰
Fnorm [2]: 865.054 ‰ and 865.604 ‰ and 865.779 ‰ and 875.543 ‰ and 875.503 ‰
Fnorm [3]: 865.701 ‰ and 866.514 ‰ and 867.418 ‰ and 876.184 ‰ and 876.412 ‰
Fnorm [4]: 865.591 ‰ and 867.224 ‰ and 867.38 ‰ and 877.755 ‰ and 877.401 ‰
Fnorm [5]: 865.921 ‰ and 866.576 ‰ and 867.232 ‰ and 876.804 ‰ and 875.942 ‰
Fnorm [6]: 869.093 ‰ and 869.423 ‰ and 869.283 ‰ and 876.037 ‰ and 875.83 ‰
Fnorm [7]: 866.543 ‰ and 867.218 ‰ and 866.782 ‰ and 877.295 ‰ and 875.441 ‰
Fnorm [8]: 863.036 ‰ and 865.051 ‰ and 864.462 ‰ and 875.685 ‰ and 876.572 ‰
Fnorm [9]: 863.695 ‰ and 864.219 ‰ and 863.404 ‰ and 872.034 ‰ and 873.646 ‰
Fnorm [10]: 862.638 ‰ and 863.454 ‰ and 863.07 ‰ and 872.056 ‰ and 872.814 ‰
Kd: 2.58 µM
